Test results as given in publication PMC10721329, “Quisinostat is a brain-penetrant radiosensitizer in glioblastoma” (JCI Insight, 2023).
Where “and” joins values, the source holds several entries; their conditions need not be identical. Equal entries are not always repeated.

Columns and labels:
[1] = tested on: GB126 cells; assay: Annexin V / ViaDye Red flow cytometry (apoptosis); format: cell-based, human; settings: 86 nM QST
Source text: (§1) For apoptosis analysis, the Dead Cell Apoptosis Kit with Annexin V FITC and Propidium Iodide for Flow Cytometry (Thermo Fisher Scientific, V13242) was followed using the manufacturer instructions, with the exception that we employed ViaDye Red Fixable Viability Dye Kit (Cytek, SKU R7-60008) instead of propidium iodide to label necrotic cells. Samples were run on the AURORA 3L 24 color spectrum cytometers (Cytek), unmixed by SpectroFlo application, and analyzed with FlowJo 10.8.1 software (Beckton Dickinson). Recommended negative controls for flow cytometry include (1) no Annexin V FITC and no ViaDye Red, (2) Annexin V FITC alone, and (3) ViaDye Red alone. The following gating strategy was used: debris population was excluded as the subset of cells with low forward scatter in the forward scatter area versus side scatter area plot. After excluding the debris, cells were gated on the Annexin versus ViaDye Red log plot with the classification as live (Annexin V negative, ViaDye Red negative), early apoptotic (Annexin V positive, ViaDye Red negative), late apoptotic (Annexin V positive, ViaDye Red positive), or necrotic (Annexin V negative, ViaDye Red positive). The frequency of the different cell subsets was reported as frequency on the total cell population, excluding debris. […]

[2] = tested on: BT145 cells; assay: Annexin V / ViaDye Red flow cytometry (apoptosis); format: cell-based, human; settings: 75 nM QST
Source text: as §1

[3] = tested on: orthotopic GB126 tumors; assay: End-stage immunoblot of orthotopic GB126 tumors (H3K9/14ac, H3K27ac); format: in vivo, athymic nude mice; settings: endpoint PDX tumors, individual mice
Method: All mice included in the survival study were processed for end-point PK and PD analyses once moribund. Plasma, tumor, and contralateral brain tissues were harvested 3 hours after dosing with 10 mg/kg QST, allowing for direct comparison of long-term treatment with the PK-PD data collected from acute (1-week) treatment with QST or combination therapy (Figure 8A). […] There were no significant differences in total or unbound drug concentrations in tumor or brain tissue between the monotherapy or combination therapy cohorts (Figure 8, E and F). Immunoblot analysis of dissected tumor samples confirmed that QST induced substantial histone H3 hyperacetylation in brain tumors, compared with untreated animals, consistent with an in vivo on-target effect (Figure 9, A and B). […]
4). Protein concentrations from whole-cell extracts were determined using the Bradford Protein Assay (ThermoFisher Scientific). Equal amounts of protein (10-40 μg/lane) were loaded onto 10% or 12.5% sodium dodecyl sulfate–polyacrylamide gel electrophoresis gels and transferred to a polyvinylidene fluoride membrane (Millipore-Sigma).
Cellular protein from frozen tissue of non–tumor-bearing mouse brains, tumor-bearing mouse brains, and flank tumors were homogenized in a prechilled glass tissue grinder (VWR) with RIPA lysis buffer containing protease and phosphatase inhibitors (ThermoFisher Scientific), with 500 uL of RIPA buffer for 10 mg of tissue. Once homogenized, the tissue lysates were kept on ice for 30 minutes and vortexed every 10 minutes. The samples were then centrifuged at 15,000 rpm for 10 minutes at 4 °C to collect the protein lysates.
Membranes were blocked with 5% nonfat milk for 1 hour at room temperature and incubated overnight with primary antibody at 4 °C. Primary antibodies used were rabbit anti-p21 […]
Signaling Technologies, 9677), mouse anti-Histone H3 (1:1000, Cell Signaling 14269), mouse

[4] = representative plot, quadrant assigned by inference

Compound: Cn1cc(CNCC2CCN(c3ncc(C(=O)NO)cn3)CC2)c2ccccc21 [QST, quisinostat]
- Apoptotic, Annexin+ ViaDye - (%) ([1]; replicates): 9.54% and 12.5% and 8.59%
- Dead, Annexin+ ViaDye + (%) ([1]; replicates): 12.7% and 14.5% and 9.91%
- ViaDyeRed / Annexin V-FITC dot plot quadrant, live (Annexin-, ViaDye-) [1, 4]: 71.9
- ViaDyeRed / Annexin V-FITC dot plot quadrant, necrotic (Annexin-, ViaDye+) [1, 4]: 5.85
- Apoptotic, Annexin+ ViaDye - (%) ([2]; replicates): 60% and 53.4% and 59.8%
- Dead, Annexin+ ViaDye + (%) ([2]; replicates): 5.66% and 6.66% and 4.49%
- ViaDyeRed / Annexin V-FITC dot plot quadrant, live (Annexin-, ViaDye-) [2, 4]: 39.3
- ViaDyeRed / Annexin V-FITC dot plot quadrant, necrotic (Annexin-, ViaDye+) [2, 4]: 0.65
- H3K9/14ac levels normalized to B-actin ([3]; QST + IR): 7.331 fold change and 7.39 fold change and 6.951 fold change
- H3K27ac levels normalized to B-actin ([3]; QST + IR): 1.842 fold change and 4.36 fold change and 3.819 fold change
- H3K9/14ac levels normalized to B-actin ([3]; QST): 5.4 fold change and 6.4803 fold change and 5.818 fold change
- H3K27ac levels normalized to B-actin ([3]; QST): 4.65 fold change and 3.97 fold change and 2.306 fold change
